Assay results from US20040132707A1, “Catecholate beta-lactam conjugates, method for producing the same and the use thereof” (Gruenenthal GmbH, priority 2001, published 2004).
Values after ≈ are worked out from the molar mass of the structure shown.

Assays:
Assay in all cases: Microdilution MIC assay (NCCLS M7-A)
Assay type in all cases: cell-based
[1] = tested on: Serratia marcescens SG 621; details: strain SG621; for MIC: Serratia marcescens, read-out: MIC Serratia marc. SG621
Protocol: (§1) The antibacterial activity was tested by a microdilution assay according to National Committee for Clinical Laboratory Standards, 1998, Methods for dilution antimicrobial susceptibility tests for bacteria that grow aerobically, Approved standard M7-A, NCCLS, Villanova, Pa.
(§2) The minimal inhibition concentrations (MICs) were determined for the following bacterial strains: The Gram-negative strains Pseudomonas aeruginosa SG 137, ATCC 27853, Escherichia coli ATCC 25922, Klebsiella pneumoniae ATCC 10031, Stenotrophomonas maltophilia GN 12873, Serratia marcescens SG 621 as well as for the Gram-positive strain Staphylococcus aureus SG 511.

[2] = tested on: Klebsiella pneumoniae ATCC 10031; details: strain ATCC10031; for MIC: Klebsiella pneumoniae
Protocol: as §1, §2

[3] = tested on: Staphylococcus aureus SG 511; details: strain SG511; for MIC: Staphylococcus aureus, read-out: MIC Staph. aureus SG511
Protocol: as §1, §2

[4] = tested on: Stenotrophomonas maltophilia GN 12873; details: strain GN12873; for MIC: Stenotrophomonas maltophilia, read-out: MIC Stenotroph. maltoph. GN12873
Protocol: as §1, §2

[5] = tested on: Pseudomonas aeruginosa ATCC 27853; details: strain ATCC 27853; for MIC: Pseudomonas aeruginosa, ATCC27853
Protocol: as §1, §2

[6] = tested on: Escherichia coli ATCC 25922; details: strain ATCC 25922; for MIC: Escherichia coli, ATCC25922, read-out: MIC E. coli ATCC 25922
Protocol: as §1, §2

[7] = tested on: Pseudomonas aeruginosa SG 137; details: strain SG137; for MIC: Pseudomonas aeruginosa
Protocol: as §1, §2

MIC [1]	MIC [2]	MIC [3]	MIC [4]	MIC [5]	MIC [6]	MIC [7]	SMILES	MIC Serratia marc. SG621 [1]	MIC Klebsiella pneumoniae ATCC10031 [2]	MIC Staph. aureus SG511 [3]	MIC Stenotroph. maltoph. GN12873 [4]	MIC Pseudomonas aeruginosa ATCC 27853 [5]	MIC E. coli ATCC 25922 [6]	MIC Pseudomonas aeruginosa SG137 [7]
–	–	–	–	–	–	–	CC(=O)Oc1cccc(C(=O)NCCN(CC(=O)N[C@@H](C(=O)N[C@@H]2C(=O)N3[C@@H]2SC(C)(C)[C@@H]3C(=O)O)c2ccccc2)C(=O)c2cccc(OC(C)=O)c2OC(C)=O)c1OC(C)=O [Example 26, N-[3,6-Bis-(2,3-diacetoxybenzoyl)-3,6-diaza-hexanoyl]-ampicillin]	0.78 µg/mL (≈ 0.877 µM)	0.1 µg/mL (≈ 0.112 µM)	3.12 µg/mL (≈ 3.51 µM)	0.78 µg/mL (≈ 0.877 µM)	0.78 µg/mL (≈ 0.877 µM)	0.78 µg/mL (≈ 0.877 µM)	0.4 µg/mL (≈ 0.449 µM)
25 µg/mL (≈ 71.5 µM)	6.25 µg/mL (≈ 17.9 µM)	0.4 µg/mL (≈ 1.14 µM)	> 100 µg/mL	> 100 µg/mL	6.25 µg/mL (≈ 17.9 µM)	> 100 µg/mL	CC1(C)S[C@@H]2[C@H](NC(=O)[C@H](N)c3ccccc3)C(=O)N2[C@H]1C(=O)O [ampicillin, reference compound]	–	–	–	–	–	–	–
50 µg/mL (≈ 108 µM)	6.25 µg/mL (≈ 13.5 µM)	0.4 µg/mL (≈ 0.867 µM)	25 µg/mL (≈ 54.2 µM)	6.25 µg/mL (≈ 13.5 µM)	6.25 µg/mL (≈ 13.5 µM)	6.25 µg/mL (≈ 13.5 µM)	CC1(C)S[C@@H]2[C@H](NC(=O)[C@H](NC(=O)N3CCNC3=O)c3ccccc3)C(=O)N2[C@H]1C(=O)O [azlocillin, reference compound]	–	–	–	–	–	–	–
0.06 µg/mL (≈ 0.156 µM)	0.04 µg/mL (≈ 0.104 µM)	0.1 µg/mL (≈ 0.261 µM)	> 100 µg/mL	0.4 µg/mL (≈ 1.04 µM)	0.04 µg/mL (≈ 0.104 µM)	0.2 µg/mL (≈ 0.522 µM)	C[C@@H](O)[C@H]1C(=O)N2C(C(=O)O)=C(S[C@@H]3CN[C@H](C(=O)N(C)C)C3)[C@H](C)[C@H]12 [meropenem, reference compound]	–	–	–	–	–	–	–
